Reference: US10517889B2, “Modulators of SMAD7 expression” (Ionis Pharmaceuticals, Inc., priority 2017, dated 2019)

How the values were obtained:
[1] = Organ weights after subcutaneous administration in CD-1 mice (Example 6); type: in vivo; conditions: end of study, 50 mg/kg subcutaneously twice a week for 7 weeks
Method: (§1) Groups of 8-9 week old male CD-1 mice were injected subcutaneously twice a week for 7 weeks with 50 mg/kg of Ionis oligonucleotides (100 mg/kg/week dose). Each group contained 4 mice. One group of male CD-1 mice was injected subcutaneously twice a week for 7 weeks with PBS. Plasma was collected for analysis on day 28.
Ionis SMAD7 oligonucleotides that caused any changes in organ weights outside the expected range for antisense oligonucleotides were excluded from further studies.

mouse Smad7 mRNA = assay: Murine Smad7 mRNA expression after oral administration in BALB/c mice (Example 11); type: in vivo; conditions: 500 mg/kg/day oral for 3 weeks, 24 hours after last dose
How it was run: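 BALB/c mice (4 per group) dosed orally with Smad7 antisense oligonucleotides at 500 mg/kg/day for 3 weeks; PBS-dosed group as control. Murine Smad7 mRNA quantified in liver, kidneys, duodenum, ileum and colon with primer probe set RTS1114.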

human SMAD7 mRNA = assay: Dose-dependent inhibition of human SMAD7 mRNA expression in Hep3B cells (Example 3, Study 1 and 2); type: cell-based; conditions: electroporation; for % inhibition of SMAD7 mRNA expression: approximately 16 hours
How it was run: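 Hep3B cells, 20,000 per well, electroporated with antisense oligonucleotide at 0.31, 1.25, 5.00 or 20.00 μM (first series) or 0.74, 2.22, 6.67 or 20.00 μM (second series). After ~16 h, SMAD7 mRNA measured by RT-qPCR (RTS5062), normalised to RIBOGREEN total RNA. Percent inhibition vs untreated cells; IC50 derived.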

[2] = Plasma chemistry markers after oral gavage in beagle dogs (Example 12); conditions: 200 mg oral gavage for 4 weeks, plasma at day 30
Method: The study was conducted to evaluate the tolerability and pharmacodynamics of select human SMAD7 antisense oligonucleotides in beagle dogs following 4 weeks of treatment. The dogs were administered oligonucleotides by oral gavage.
Groups of 24-25 week old male beagle dogs were administered 200 mg Ionis human SMAD7 oligonucleotide by oral gavage once a week for 4 weeks. There were 4 animals per group. A control group of dogs received oral administration of distilled water. Dogs were sacrificed on day 30 approximately 48 hours after the final dose and organs and plasma were harvested for further analysis.
To evaluate the effect of Ionis SMAD7 oligonucleotides on liver and kidney function, approximately 1.5 mL of blood samples were collected and put into tubes without anticoagulant for serum separation. The tubes were kept at room temperature for a minimum of 90 min and then centrifuged (approximately 3,000 rpm for 10 min) to obtain serum. Plasma levels of transaminases, albumin, bilirubin, and BUN were measured using an automated clinical chemistry analyzer (Toshiba 200FR Neo chemistry analyzer, Toshiba Co., Japan).

[3] = Pharmacokinetics: oligonucleotide concentration in the plasma on day 28 after oral gavage in beagle dogs (Example 12); type: in vivo; conditions: 200 mg oral gavage
Method: There were 4 animals per group.
Plasma concentrations of Ionis oligonucleotides were also measured on Day 28 at various time points.

[4] = Plasma chemistry markers after subcutaneous administration in CD-1 mice (Example 6); type: in vivo; conditions: CD-1 mice plasma at day 46; 50 mg/kg subcutaneously twice a week for 7 weeks
Method: CD-1® mice (Charles River, Mass.) are a multipurpose mice model, frequently utilized for safety and efficacy testing. The mice were treated with Ionis human SMAD7 antisense oligonucleotides selected from studies described above and evaluated.
Groups of 8-9 week old male CD-1 mice were injected subcutaneously twice a week for 7 weeks with 50 mg/kg of Ionis oligonucleotides (100 mg/kg/week dose). Each group contained 4 mice. One group of male CD-1 mice was injected subcutaneously twice a week for 7 weeks with PBS. […]

murine Smad7 mRNA = assay: Dose-dependent inhibition of murine Smad7 mRNA in bEND cells, electroporation (Example 5, Study 2); type: cell-based, mouse; conditions: electroporation; for % inhibition of SMAD7 mRNA expression: approximately 16 hours
How it was run: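 Mouse bEND cells electroporated with oligonucleotide at several doses and treated for approximately 16 hours. Smad7 mRNA quantified by real-time RT-PCR (primer probe set RTS1114), normalised to total RNA by RiboGreen. Reported as percent inhibition relative to untreated cells.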

[5] = Hematology assays after subcutaneous administration in CD-1 mice (Example 6); type: in vivo; parameters: RBC / Eosinophils / Monocytes: unit not given here; conditions: 50 mg/kg subcutaneous twice weekly for 7 weeks
Method: as §1
Blood obtained from all mouse groups was measured by an ADVIA2120i hematology analyzer (Siemens, USA) for measurements of the various blood cells, as well as other hematology markers.

## 830025 (antisense TTTGTAAATCGAAAGC; 3-10-3 cEt gapmer, further chemistry not given here) [compound 830025]
[1]
  Organ weights, Kidneys: 0.6 g
  Organ weights, Liver: 2.2 g
  Organ weights, Spleen: 0.2 g
Mouse Smad7 mRNA; colon
  Mouse Smad7 mRNA expression (% inhibition), Colon: 39 % inhibition
Mouse Smad7 mRNA; duodenum
  Mouse Smad7 mRNA expression (% inhibition), Duodenum: 51 % inhibition
Mouse Smad7 mRNA; ileum
  Mouse Smad7 mRNA expression (% inhibition), Ileum: 0 % inhibition
Mouse Smad7 mRNA; kidney
  Mouse Smad7 mRNA expression (% inhibition), Kidney: 31 % inhibition
Mouse Smad7 mRNA; liver
  Mouse Smad7 mRNA expression (% inhibition), Liver: 25 % inhibition
Human SMAD7 mRNA; 740 nM, Study 2, relative to untreated control cells
  % inhibition of SMAD7 mRNA expression: 42%
Human SMAD7 mRNA; 2220 nM, Study 2
  % inhibition of SMAD7 mRNA expression: 58%
Human SMAD7 mRNA; 6670.0 nM, Study 2
  % inhibition of SMAD7 mRNA expression: 72%
Human SMAD7 mRNA; 20000.0 nM, Study 2
  % inhibition of SMAD7 mRNA expression: 88%
Human SMAD7 mRNA; Study 2 (740-20000 nM)
  IC50: < 700 nM
[2]
  ALT (% of control): 117 % of control
  AST (% of control): 106 % of control
  Albumin (% of control): 96 % of control
  BUN (% of control): 93 % of control
  Bilirubin (% of control): 96 % of control
[3]; 2 hr
  Oligonucleotide concentration in the plasma on day 28: 13.6 ng/mL
[3]; 4 hr
  Oligonucleotide concentration in the plasma on day 28: 3.8 ng/mL
[3]; 8 hr
  Oligonucleotide concentration in the plasma on day 28: 1.7 ng/mL
[3]; 24 hr
  Oligonucleotide concentration in the plasma on day 28: 0.0 ng/mL
[4]
  ALT: 208 IU/L
  AST: 263 IU/L
  Albumin: 2.5 g/dL
  BUN: 25 mg/dL
Murine Smad7 mRNA; 0.25 μM
  % inhibition of SMAD7 mRNA expression: 15%
Murine Smad7 mRNA; 0.74 μM
  % inhibition of SMAD7 mRNA expression: 27%
Murine Smad7 mRNA; 2.22 μM
  % inhibition of SMAD7 mRNA expression: 51%
Murine Smad7 mRNA; 6.67 μM
  % inhibition of SMAD7 mRNA expression: 67%
Murine Smad7 mRNA; 20.00 μM
  % inhibition of SMAD7 mRNA expression: 77%
Murine Smad7 mRNA
  IC50: 2700 nM
[5]
  Eosinophils: 3.8
  Hematocrit: 38.7%
  Hemoglobin: 12.5 g/dL
  Lymphocytes: 83.2%
  MCH: 15.7 pg
  MCHC: 32.3 g/dL
  MCV: 48.8 fL
  Monocytes: 3.2
  Neutrophils: 9.3%
  RBC: 8.0
  Reticulocytes: 3.3%
  WBC: 4.8 10^3/μL
  platelets: 805.0 10^3/μL
[5]; n.d. = below detection levels
  Basophils: 0.6 10^3/μL
